Reference: ChEMBL document CHEMBL1147304, “Antioxidant metabolites from the tunicate Amaroucium multiplicatum” (J Nat Prod, 1989)
≈ marks a conversion by molar mass, not a printed value.

Experiments:
[1] = test system: Liver microsomes; test: Antioxidant activity in rat liver microsomes assessed as inhibition of lipid peroxide formation after 30 mins; type: functional, Microsome
[2] = Inhibition of soybean arachidonate 15-lipoxygenase by oxygen electrode method; parameters: species or system Glycine max

## CC(C)=CCCC(C)(O)CCc1cc(O)ccc1O (stereo not drawn)
[1]
  IC50: 0.3 µg/mL (≈ 1.13 µM)
[2]
  IC50: 3 µg/mL (≈ 11.3 µM)

## CC(C)=CCCC(C)(O)/C=C/c1cc(O)ccc1O (stereo not drawn)
[1]
  IC50: 0.3 µg/mL (≈ 1.14 µM)

## COc1cc2c(cc1O)C=CC(C)(CCC=C(C)C)O2 (stereo not drawn)
[1]
  IC50: 0.1 µg/mL (≈ 0.364 µM)
[2]
  IC50: 0.5 µg/mL (≈ 1.82 µM)

## Cc1cc(C(C)(C)C)c(O)c(C(C)(C)C)c1 [BUTYLATED HYDROXYTOLUENE]
[1]
  IC50: 0.3 µg/mL (≈ 1.36 µM)
[2]
  IC50: > 10 µg/mL

## CC(C)=CCCC1(C)C=Cc2cc(O)ccc2O1 (stereo not drawn) [CORDIACHROMENE A]
[1]
  IC50: 0.3 µg/mL (≈ 1.23 µM)
[2]
  IC50: 0.2 µg/mL (≈ 0.819 µM)

## CC(C)=CCC/C(C)=C/Cc1cc(O)ccc1O [GEROQUINOL]
[1]
  IC50: 0.1 µg/mL (≈ 0.406 µM)
[2]
  IC50: 0.2 µg/mL (≈ 0.812 µM)

## CC(=O)Oc1c(C)c(C)c2c(c1C)CCC(C)(CCC[C@H](C)CCC[C@H](C)CCCC(C)C)O2 (stereo partly drawn) [TOCOPHEROL ACETATE]
[1]
  IC50: > 10 µg/mL
[2]
  IC50: > 10 µg/mL
